From paper PMC7285181 (Pharmaceutics, 2020)
Counter-ions that a name gives are not always drawn. Marks after values point to notes of the source that are not given here.

System: compound 48/80-induced systemic anaphylaxis-like reactions in mice
Assay: Compound 48/80-induced systemic anaphylaxis-like reactions in mice (mortality)
Assay type: in vivo
Conditions: n = 8, oral 1 h before i.p. compound 48/80 (8 mg/kg), mortality within 1 h
Method: Five groups each of 8 male albino mice were used in this experiment. Mice were housed 4 per cage and were maintained at room temperature (25 ± 0.5 °C). All experiments were performed in compliance with the guidelines approved by the ethics committee of Faculty of Pharmacy, The British University in Egypt (approval number Ex-1904). The mice in the first group were administered phosphate buffer saline orally (negative control group), while the second group were administered phosphate buffer saline 1 hour prior to an intraperitoneal injection of 8 mg/kg of the mast cell degranulator compound 48/80 which induces systemic anaphylaxis-like reactions in mice (positive control group). […] The mortality was monitored for 1 h after induction of anaphylactic shock. After the mortality test, blood was obtained from the heart of each mouse by cardiac puncture.

CC(C)(C(=O)O)c1ccc(C(O)CCCN2CCC(C(O)(c3ccccc3)c3ccccc3)CC2)cc1 (stereo not shown) [FEX powder, Fexofenadine HCl]
Mortality: 62.5% *
